Source: patent US11331291B2, “Method of and improved composition for treating triterpene-responsive conditions, diseases or disorders” (PHOENIX BIOTECHNOLOGY, INC., priority 2017, dated 2022)
Read-outs that look alike come from different tables or passages of the source.

Tests used:
[1] = test system: primary corticalstriatal neuronal co-cultures containing glia; format: cell-based
Method: FIGS. 6A, 6B, 7A, 7B, 8A, and 8B depict the results of comparative cellular toxicities of the triterpenes to primary corticalstriatal neuronal co-cultures containing glia evaluated according to the example below: ursolic acid (FIGS. 6A, 6B), betulinic acid (FIGS. 7A, 7B) and oleanolic acid (FIGS. 8A, 8B). For FIGS. 6A, 7A and 8A, propidium iodide was added for one hour then the numbers of PI-positive cells were scored under automated high-content analysis on the Cellomics ArrayScan VTI. For FIGS. 6B, 7B and 8B, MTS substrate was added for two hours then co-culture wells were measured for absorbance at 450 nm using a multi-well plate reader.
We determined whether the reduced neuroprotective activity of Compositions I and II might be due to cellular toxicity of one or more of the individual triterpenes. We conducted a direct study of the cellular toxicities of oleanolic acid (OA), ursolic acid (UA), and betulinic acid (BA) using two independent measures of cell death: propidium iodide (PI) staining for nuclear breakdown and the MTS assay for cell metabolic activity. […] The MTS assay is a well-based assay in which cleavage of a tetrazolium reporter by mitochondrial enzymes produces colorimetric readout and reports relative numbers of healthy cells.

[2] = test system: ARE target genes (Srx, Hmox1); test: ARE gene expression qPCR in rat primary corticostriatal co-cultures; format: cell-based
Method: FIG. 3 (prior art: Van Kanegan: vide supra) depicts the results of ARE gene expression assays for Fraction 0-4 and the individual triterpenes oleanolic acid, ursolic acid, betulinic acid and uvaol (also referred to as uvalol). “X” symbols denote concentrations of compounds which induced toxicity and for which recovery of residual mRNA was insufficient to support qPCR analysis. Rat primary corticostriatal co-cultures were treated for 6 h with Fraction 0-4 (in μg/ml) or oleanolic acid, ursolic acid, betulinic acid, or uvaol (all in μM) at the concentrations indicated, then harvested and processed for qPCR analysis of the ARE target genes shown. Quantitative RNA values were normalized to the GAPDH reference control and fold-expression changes are expressed relative to the DMSO-carrier only condition (“--”) set to a value of 1. Dark bars denote statistically significant differences with respect to the DMSO-carrier only control by a Student's t-test at p<0.05.
FIG. 4 depicts the results of expression assays for Fraction 0-4 and the individual triterpenes ursolic acid and betulinic acid at more closely-spaced concentration ranges. Rat primary corticostriatal co-cultures were treated for 6 h with Fraction 0-4 (in μg/ml) or ursolic acid and betulinic acid (in μM) at the concentrations indicated, then harvested and processed for qPCR analysis of the ARE target genes shown. Quantitative RNA values were normalized to the GAPDH reference control and fold-expression changes are expressed relative to the DMSO-carrier only condition (“--”) set to a value of 1. Dark blue bars denote statistically significant differences with respect to the DMSO-carrier only control by a Student's t-test at p<0.05.
FIGS. 10A and 10B depict the results of comparative Srx (FIG. 10A) and Hmox1 (FIG. 10B) expression assays for PBI-05204, PBI-04711 (also referred to as Fxn 0-4), oleanolic acid (O), ursolic acid (U), betulinic acid (B) and combinations of the triterpenes present at the specified molar ratios. Quantitative RNA values were normalized to the GAPDH reference control and fold-expression changes are shown relative to the DMSO-carrier only condition set to a value of 1. Dark blue bars denote statistically significant differences with respect to the DMSO-carrier only control by a Student's t-test at p<0.05. Striped, red bars denote conditions which induced excessive levels of ARE gene expression, namely, by more than 10-fold.
For qPCR quantification of ARE target gene expression levels, cortical and striatal neurons were plated onto 96-well plates containing mature glial cultures and cultured for 96 h. Composition was added to cultures at the indicated concentrations for 6 h. At the end of the treatment period, cells were lysed and total RNA was isolated using Absolutely RNA mini-prep kits (Agilent Technologies/Stratagene). cDNA was generated using oligo dT primers and Superscript II reverse transcriptase (Invitrogen). Resulting cDNA was used for quantitative PCR of gene transcripts using SYBR Green Real-Time PCR Master Mix (Life Technologies) and the following mouse primers, for: Gcic (forward-5′ […]-3′ (SEQ ID NO. 1) and reverse-5′-[…]-3′) (SEQ ID NO. 2), Ngo1 (forward-5′-GCCCGCATGCAGATCCT-3′ (SEQ ID NO. 3) and reverse 5′-[…]3′) (SEQ ID NO. 4), Srx (forward-5′-[…]-3′ (SEQ ID NO. 5) and reverse-5′-[…]-3′) (SEQ ID NO. 6), and Hmox1 (forward-5′-[…]-3′ (SEQ ID NO. 7) and reverse-5′-[…]-3′) (SEQ ID NO. 8) (Integrated DNA Technologies). […]

[3] = test system: ARE target genes (Srx, Hmox1); conditions: 6 h; prior art FIG. 3; compared among UA, BA, OA; cited from earlier work
[4] = test system: cortical pyramidal neurons; conditions: prior art FIG. 5; equimolar basis; cited from earlier work

| SMILES | concentration leading to 50% loss of metabolic activity [1] [µM] | cellular toxicity ([2]; even at low concentration) | inducing ARE gene expression as single agent [3] | neuroprotective activity of individual triterpenes in OGD assay [4] | ARE gene expression induction ([2]; single agent, any concentration tested, FIGS. 10A, 10B) | cellular toxicity [2] | upregulation of Srx and Hmox1 ([2]; 6 h, closely-spaced concentrations, FIG. 4) | ARE gene expression induction (Srxn1) ([2]; single agent at 9 μM, relative to DMSO) [fold] |
| --- | --- | --- | --- | --- | --- | --- | --- | --- |
| C=C(C)[C@@H]1CC[C@]2(C(=O)O)CC[C@]3(C)[C@H](CC[C@@H]4[C@@]5(C)CC[C@H](O)C(C)(C)[C@@H]5CC[C@]43C)[C@@H]12 [BA, betulinic acid] | 5 to 15 | caused cellular toxicity | – | – | – | – | – | – |
| CC1(C)CC[C@]2(C(=O)O)CC[C@]3(C)C(=CC[C@@H]4[C@@]5(C)CC[C@H](O)C(C)(C)[C@@H]5CC[C@]43C)[C@@H]2C1 [OA, oleanolic acid] | – | – | relatively inactive | higher activity than UA | not able to induce appreciable ARE gene expression | – | – | – |
| C[C@H]1[C@H](C)CC[C@]2(C(=O)O)CC[C@]3(C)C(=CC[C@@H]4[C@@]5(C)CC[C@H](O)C(C)(C)[C@@H]5CC[C@]43C)[C@H]12 [UA, ursolic acid] | 5 to 15 | – | considerably more potent | variable activity | – | caused cellular toxicity | clear upregulation | > 10 |
